Test [1] has as its target T1, human β3 adrenergic receptor (Homo sapiens, UniProt P13945).
T1 construct: expressed in transfected cells; host or cells: CHO cells, stably transfected
In words: Functional assay: cAMP production (LANCE) in CHO cells expressing β3 adrenergic receptor. It counts as cell-based. How it is done:
Chinese hamster ovary (CHO) cells, stably transfected with the cloned β-adrenergic receptor (β1, β2 or β3) are harvested after 3 days of subculturing. Harvesting of cells is done with Enzyme-free Dissociation Media (Specialty Media). Cells are then counted and resuspended in assay buffer (Hank's Balanced salt solution supplemented with 5 mM HEPES, 0.1% BSA) containing a phosphodiesterase inhibitor (IBMX, 0.6 mM). The reaction is initiated by mixing 6,000 cells in 6 μL with 6 μL Alexa Fluor labeled cAMP antibody (LANCE™ kit) which is then added to an assay well containing 12 μL of compound (diluted in assay buffer to 2× final concentration). The reaction proceeds for 30 min at room temperature and is terminated by the addition of 24 μL detection buffer (LANCE™ kit). The assay plate is then incubated for 1 h at room temperature and time-resolved fluorescence measured on a Perkin Elmer Envision reader or equivalent. The unknown cAMP level is determined by comparing fluorescence levels to a cAMP standard curve.
The non-selective, full agonist β-adrenergic ligand isoproterenol is used at all three receptors to determine maximal stimulation. […] Data are analyzed using Microsoft Excel and Graphpad Prism or an internally developed data analysis software package.

Test [2] relates to rats. As to conditions: intravenous administration, cited from earlier work.
Where [3] appears, read: cAMP production, CHO cells, given as a range, read-out: human β3 functional activity.

Like-named read-outs stand apart in the source and are kept apart here.

T1 sequence (P13945 whole entry): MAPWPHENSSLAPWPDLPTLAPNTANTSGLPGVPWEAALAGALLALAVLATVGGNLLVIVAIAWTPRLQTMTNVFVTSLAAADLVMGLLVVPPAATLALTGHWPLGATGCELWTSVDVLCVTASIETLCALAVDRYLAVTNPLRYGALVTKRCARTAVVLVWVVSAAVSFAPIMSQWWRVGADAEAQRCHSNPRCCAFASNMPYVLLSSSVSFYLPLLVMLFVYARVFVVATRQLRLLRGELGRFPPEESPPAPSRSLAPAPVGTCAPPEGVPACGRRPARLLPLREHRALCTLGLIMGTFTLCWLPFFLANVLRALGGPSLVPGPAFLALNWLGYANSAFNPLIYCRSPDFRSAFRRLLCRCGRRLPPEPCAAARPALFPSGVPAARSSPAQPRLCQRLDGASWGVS

Consider `Cc1nc(CC(=O)Nc2ccc(C[C@@H]3CC[C@H]([C@H](O)c4ccccc4)N3)cc2)c(C)s1` [Example 10], for which the EC50 in test [1] (Table 4, text b832: human β3 functional activity, read-out: Human β3 Binding) was 1 to 10 nM.

On to `O=C(Nc1ccc(C[C@@H]2CC[C@H]([C@H](O)c3ccccc3)N2)cc1)C1CCc2cccc(=O)n21` (single isomer, unassigned) [Example 102], for which the EC50 in test [1] (setting [3]) was less than 1 nM. For the compound `C[C@H](Cc1ccc2c(c1)OC(C(=O)[O-])(C(=O)[O-])O2)NC[C@H](O)c1cccc(Cl)c1.[Na+].[Na+]` [CL316243], the bladder capacity entry in test [2] (cystometric studies) is recorded as “increases bladder capacity”. The bladder pressure result in test [2] is on record as “reduces bladder pressure”. Turning to `CC(C(=O)Nc1ccc(C[C@@H]2CC[C@H]([C@H](O)c3ccccc3)N2)cc1)n1ccccc1=O` (single isomer, unassigned) [Example 203], the EC50 in test [1] (Table 5, read-out: Human β3 Functional) lay in the range of 1 to 10 nM.

On to `Nc1nc2c(s1)CCC2C(=O)Nc1ccc(CC2CCC(C(O)c3ccc(F)cc3)N2)cc1` (single isomer, unassigned) [Example 308], for which, in test [1] (human β3 functional activity, given as ranges, read-out: Human β3 Functional), the EC50 is 1 to 10 nM. `O=C(Nc1ccc(C[C@@H]2CC[C@H]([C@H](O)c3ccccc3)N2)cc1)[C@@H]1CCc2cccc(=O)n21` (single isomer, unassigned) [Example 101]: the EC50 in test [1] (setting [3]) is 1 to 10 nM.

Source of the values: US8653260B2, “Hydroxymethyl pyrrolidines as beta 3 adrenergic receptor agonists” (Merck Sharp & Dohme Corp., priority 2008, dated 2014).
